{"source": "patent US12331051B2", "about": "(priority 2021, dated 2025)", "key": {"DVS hygroscopicity": {"experiment": "DVS hygroscopicity", "assay_type": "physicochemical", "conditions": "for DVS (hold at 75% RH) mass increase: crude material, 75% relative humidity, ~5 hr run time"}, "D1 dopamine receptor": {"biological_target": "D1 dopamine receptor (Homo sapiens, UniProt P21728)", "sequence (P21728 whole entry)": "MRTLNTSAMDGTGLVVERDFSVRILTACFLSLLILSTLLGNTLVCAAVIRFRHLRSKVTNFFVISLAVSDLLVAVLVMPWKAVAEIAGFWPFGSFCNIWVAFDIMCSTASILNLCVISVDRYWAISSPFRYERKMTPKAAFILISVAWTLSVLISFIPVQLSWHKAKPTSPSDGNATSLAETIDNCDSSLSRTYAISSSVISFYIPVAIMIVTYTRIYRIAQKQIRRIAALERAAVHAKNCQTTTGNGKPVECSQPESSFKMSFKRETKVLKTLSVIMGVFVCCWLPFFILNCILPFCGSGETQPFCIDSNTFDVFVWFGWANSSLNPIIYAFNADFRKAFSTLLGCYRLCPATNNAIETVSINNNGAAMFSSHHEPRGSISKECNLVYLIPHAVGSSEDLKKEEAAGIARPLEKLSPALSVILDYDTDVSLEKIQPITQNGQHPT", "experiment": "Radioligand binding, cell membrane homogenates", "set-up": "expressed in transfected cells; host or cells: HEK-293", "description": "Neuro-receptor binding and functional effects of the “E559 polymorph” was examined by analyzing binding affinity [Ki (nM)], functional agonist activity [EC50 (nM)], and functional antagonist activity [IC50 (nM)] against a panel of key receptors in neurophysiological disorders. Binding and functional assays were performed at “E559 polymorph” concentrations of 0.0003, 0.003, 0.01, 0.03, 0.1, 0.3, 1, and 10 μM. In binding assays, cell membrane homogenates, expressing each receptor target, were incubated with the corresponding radio-ligand in absence or presence of several concentration of the “E559 polymorph” compound. The measurement of binding affinity of the “E559 polymorph” is represented in TABLE XIII by Ki (nM) which was calculated as percent inhibition of the binding of a radioactively labeled reference ligand at each receptor. […] Following incubation, the cells were lysed and the appropriate fluorescent probe (Ca2+ flux, cAMP, or IP1) were added for 60 minutes to measure the fluorescence transfer at the appropriate wavelength using a microplate reader. The cellular agonist effect (EC50) was calculated as a percent of control response to a known reference agonist and the cellular antagonist effect (IC50) was calculated as a percent inhibition of control reference agonist response for each receptor."}, "[1]": {"test_system": "rat spared nerve injury (SNI) model", "experiment": "Spared nerve injury (SNI) model, von Frey mechanical allodynia", "assay_type": "in vivo", "description": "To evaluate the function the “E559 polymorph” in neuropathic pain, mechanical allodynia test was evaluated by von Frey filament in rat spared nerve injury (SNI) model before and after before and after treatment with the “E559 polymorph”. The SNI model and von Frey filament testing were conducted as previously described (Decosterd & Woolf. Pain, 2000, v87, p149-158). Briefly, Animals with a pain threshold of <15 g, assessed using the Von Frey mechanical allodynia testing, were randomly placed in experimental groups. Each rat group consisted of 10 male rats. On day 7 post-surgery treatment was initiated. […]\nThe pain response (Von Frey testing) was evaluated on day 0 pre-surgery (labelled as Baseline in FIG. 27), on day 6 post-surgery (labelled as Day 6 Pre grouping in FIG. 27), and at 2, 4, 6, and 24 hours after a single oral dose of either vehicle, or the “E559 polymorph” at 0.3, 1, 3, or 10 mg/kg (labelled as BETR-001 in FIG. 27), or gabapentin at 150 mg/kg. […]\nRat groups were treated (via oral administration) with either vehicle, or the “E559 polymorph” at 20 mg/kg (labelled as BETR-001 in FIG. 28), or gabapentin at 150 mg/kg. […] The pain response (Von Frey testing) was evaluated on day 0 pre-surgery (labelled as Baseline in FIG. 28), on day 6 post-surgery (labelled as Day 6 Pre grouping in FIG. 28), and at 2 hours post-treatment given on days 7, 11, and 15 post-surgery. […]"}, "[2]": {"biological_target": "T1, Serotonin 1B receptor (5-HT1BR) (Homo sapiens, UniProt P28222)", "T1 construct": "expressed in transfected cells; host or cells: HEK-293", "T1 sequence (P28222 whole entry)": "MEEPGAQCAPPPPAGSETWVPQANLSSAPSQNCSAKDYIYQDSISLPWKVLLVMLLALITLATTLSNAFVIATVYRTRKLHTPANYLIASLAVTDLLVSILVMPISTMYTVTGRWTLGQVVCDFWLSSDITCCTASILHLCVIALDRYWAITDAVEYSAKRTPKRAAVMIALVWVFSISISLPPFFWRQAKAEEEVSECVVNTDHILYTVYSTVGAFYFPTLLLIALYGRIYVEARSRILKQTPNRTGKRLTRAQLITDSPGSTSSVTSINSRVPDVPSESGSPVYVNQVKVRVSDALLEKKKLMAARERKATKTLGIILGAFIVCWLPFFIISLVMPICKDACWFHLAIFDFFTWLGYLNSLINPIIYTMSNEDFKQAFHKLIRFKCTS", "experiment": "Functional assay in HEK-293 cells (cAMP)", "assay_type": "cell-based", "description": "(§1) Neuro-receptor binding and functional effects of the “E559 polymorph” was examined by analyzing binding affinity [Ki (nM)], functional agonist activity [EC50 (nM)], and functional antagonist activity [IC50 (nM)] against a panel of key receptors in neurophysiological disorders. Binding and functional assays were performed at “E559 polymorph” concentrations of 0.0003, 0.003, 0.01, 0.03, 0.1, 0.3, 1, and 10 μM. In binding assays, cell membrane homogenates, expressing each receptor target, were incubated with the corresponding radio-ligand in absence or presence of several concentration of the “E559 polymorph” compound. The measurement of binding affinity of the “E559 polymorph” is represented in TABLE XIII by Ki (nM) which was calculated as percent inhibition of the binding of a radioactively labeled reference ligand at each receptor. In functional assays the HEK-293 cells expressing each receptor target were suspended in buffer and distribute in microplates and incubated for 30 minutes at room temperature or 37° C. in the presence of buffer alone (basal control), the reference agonist or antagonist, or the “E559 polymorph. Following incubation, the cells were lysed and the appropriate fluorescent probe (Ca2+ flux, cAMP, or IP1) were added for 60 minutes to measure the fluorescence transfer at the appropriate wavelength using a microplate reader. The cellular agonist effect (EC50) was calculated as a percent of control response to a known reference agonist and the cellular antagonist effect (IC50) was calculated as a percent inhibition of control reference agonist response for each receptor.\nThe functional agonist activity [EC50 (nM), Emax], and functional antagonist activity [IC50 (nM)] of the 5R:8S stereoisomer of the “E559 polymorph” (5R:8S E558) was compared with the “E559 polymorph” (a 5R:8R stereoisomer) at selected serotonin receptors. The assays were performed as described in Example 6."}, "5-HT1E": {"biological_target": "T2, 5-HT1E (Homo sapiens, UniProt P28566)", "T2 construct": "expressed in transfected cells; host or cells: HEK-293", "T2 sequence (P28566 whole entry)": "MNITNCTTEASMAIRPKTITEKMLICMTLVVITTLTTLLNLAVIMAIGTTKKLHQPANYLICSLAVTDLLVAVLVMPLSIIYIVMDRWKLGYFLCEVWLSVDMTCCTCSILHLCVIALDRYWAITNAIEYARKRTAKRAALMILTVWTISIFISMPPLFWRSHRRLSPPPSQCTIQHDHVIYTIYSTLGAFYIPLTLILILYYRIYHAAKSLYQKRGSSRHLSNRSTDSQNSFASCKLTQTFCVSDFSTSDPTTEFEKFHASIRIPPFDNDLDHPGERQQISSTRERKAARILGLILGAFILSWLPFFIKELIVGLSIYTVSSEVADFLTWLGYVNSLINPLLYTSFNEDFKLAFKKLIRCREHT", "experiment": "Functional assay (Arrestin)", "assay_type": "cell-based"}, "D2S dopamine receptor": {"biological_target": "T3, D2S dopamine receptor (Homo sapiens, UniProt P14416)", "T3 construct": "expressed in transfected cells; host or cells: HEK-293", "T3 sequence (P14416 1-414 isoform P14416-2)": "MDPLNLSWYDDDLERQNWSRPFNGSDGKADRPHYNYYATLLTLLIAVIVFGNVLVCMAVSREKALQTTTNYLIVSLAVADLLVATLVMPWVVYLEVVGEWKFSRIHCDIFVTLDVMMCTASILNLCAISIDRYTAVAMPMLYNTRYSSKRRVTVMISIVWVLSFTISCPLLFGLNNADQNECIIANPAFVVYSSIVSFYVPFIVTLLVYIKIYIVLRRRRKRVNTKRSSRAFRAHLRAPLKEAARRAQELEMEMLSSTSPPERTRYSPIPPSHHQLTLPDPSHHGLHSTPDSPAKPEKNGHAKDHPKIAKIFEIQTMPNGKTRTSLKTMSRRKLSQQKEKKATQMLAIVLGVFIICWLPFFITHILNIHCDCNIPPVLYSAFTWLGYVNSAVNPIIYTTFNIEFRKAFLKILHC", "experiment": "Functional assay in HEK-293 cells (cAMP)", "assay_type": "cell-based", "description": "as §1"}, "[3]": {"biological_target": "T4, Beta 1 adrenergic receptor (Homo sapiens, UniProt P08588)", "T4 construct": "expressed in transfected cells; host or cells: HEK-293", "T4 sequence (P08588 whole entry)": "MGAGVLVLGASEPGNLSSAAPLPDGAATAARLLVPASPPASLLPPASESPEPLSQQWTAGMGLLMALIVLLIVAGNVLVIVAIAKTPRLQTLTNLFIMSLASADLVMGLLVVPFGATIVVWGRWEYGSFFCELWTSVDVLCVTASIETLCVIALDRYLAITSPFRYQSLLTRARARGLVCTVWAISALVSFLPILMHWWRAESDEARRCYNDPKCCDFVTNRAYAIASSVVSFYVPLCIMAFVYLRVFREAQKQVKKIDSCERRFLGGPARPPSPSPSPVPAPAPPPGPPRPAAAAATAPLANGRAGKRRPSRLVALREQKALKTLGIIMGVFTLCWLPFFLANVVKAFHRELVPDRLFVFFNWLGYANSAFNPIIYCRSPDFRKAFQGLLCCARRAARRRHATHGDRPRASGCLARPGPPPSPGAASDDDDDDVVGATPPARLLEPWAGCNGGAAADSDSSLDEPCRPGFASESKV", "experiment": "Functional assay in HEK-293 cells (cAMP)", "assay_type": "cell-based", "description": "as §1"}}, "note": "pEC50, pIC50, pKi: −log10 of the molar value.", "data": [{"smiles": "CCN(CC)C(=O)[C@@H]1C=C2c3cccc4[nH]c(Br)c(c34)C[C@H]2N(C)C1", "note": "[E559, (5R, 8R)-2-Bromo-9,10-didehydro-N,N-diethyl-6-methylergoline-8-carboxamide hemi-D-tartrate]", "values": [{"measurement": "DVS (0-90-0 2 cycles) max water absorbed", "setting": "DVS hygroscopicity; 90% RH exposure, ~24 hr run time, listed as D-Tartrate", "value": "absorbed max 7% water"}, {"measurement": "DVS (hold at 75% RH) mass increase", "setting": "DVS hygroscopicity", "value": "about 3.4%"}, {"measurement": "DVS (hold at 75% RH) mass increase", "setting": "DVS hygroscopicity; listed as D-Tartrate", "value": 3.4, "unit": "% mass increase"}, {"measurement": "pKi", "setting": "D1 dopamine receptor", "value": 7.60}, {"measurement": "inhibition of mechanical allodynia, repeated dosing", "setting": "[1]; oral 20 mg/kg on days 7, 9, 11, 13 and 15 post-surgery", "value": "enhanced the inhibition effect on mechanism allodynia to levels comparable to the gabapentin positive control"}, {"measurement": "inhibition of neuropathic pain (von Frey), single dose", "setting": "[1]; single oral dose 0.3, 1, 3 or 10 mg/kg on day 7 post-surgery, 2 and 4 hours post administration", "value": "significant dose-dependent inhibition of neuropathic pain"}, {"measurement": "pIC50", "setting": "[2]", "value": "< 5.00"}, {"measurement": "EC50", "setting": "[2]; Functional (Agonist) EC50 (nM), cAMP", "value": 6.69, "unit": "nM"}, {"measurement": "EC50", "setting": "[2]; Functional Assay (agonist) EC50 (nM), cAMP, ligand 5-HT", "value": 6.96, "unit": "nM"}, {"measurement": "Emax", "setting": "[2]; HEK293, cAMP, ligand 5-HT, read-out: Functional Assay (agonist) Emax", "value": 100, "unit": "%"}, {"measurement": "pEC50", "setting": "5-HT1E", "value": "< 5.00"}, {"measurement": "Emax", "setting": "5-HT1E; Arrestin, ligand 5-HT, read-out: Functional Assay (agonist) Emax", "value": 8.7, "unit": "%"}, {"measurement": "pEC50", "setting": "D2S dopamine receptor", "value": "< 5.00"}, {"measurement": "pIC50", "setting": "D2S dopamine receptor", "value": "< 5.00"}, {"measurement": "pEC50", "setting": "[3]", "value": "< 5.00"}, {"measurement": "pIC50", "setting": "[3]", "value": 6.06}]}]}
